# Measured values from US20220306695A1, “COMPSTATIN ANALOGUES AND THEIR MEDICAL USES” (priority 2019, published 2022).
# Read-outs that look alike come from different tables or passages of the source. Starred links: 1 amine or outer side, 2 acyl side, 3 side chain; linkers in the order of their positions; H or OH if unused. Positions of bridges follow the written chain, without caps; N, C: chain ends. Non-standard residues stand in square brackets, D forms with d. Residues, ends and D or L forms follow the SMILES beside them. Groups on a side chain read outwards from the residue. *: point of attachment. Trp(1-Me) = Cn1cc(C[C@H](N)C(=O)O)c2ccccc21; Abu(4-yl) = O=C([C@H](CC[*:3])N[*:1])[*:2]; C18 diacid = O=C(O)CCCCCCCCCCCCCCCCC(=O)*; C16 diacid = O=C(O)CCCCCCCCCCCCCCC(=O)*; γGlu = O=C(O)[C@H](CCC(=O)[*:2])N[*:1]; AEEA = NCCOCCOCC(=O)O; Sar = CNCC(=O)O
# B1: Compound 92 (peptide)
# peptide: Ac-ICIWQDWGEHRCTEGK([γGlu-C16 diacid])-NH2
# modifications: disulfide 2-12
# SMILES: CC[C@H](C)[C@H](NC(C)=O)C(=O)N[C@H]1CSSC[C@@H](C(=O)N[C@H](C(=O)N[C@@H](CCC(=O)O)C(=O)NCC(=O)N[C@@H](CCCCNC(=O)CC[C@H](NC(=O)CCCCCCCCCCCCCCC(=O)O)C(=O)O)C(N)=O)[C@@H](C)O)NC(=O)[C@H](CCCNC(=N)N)NC(=O)[C@H](Cc2c[nH]cn2)NC(=O)[C@H](CCC(=O)O)NC(=O)CNC(=O)[C@H](Cc2c[nH]c3ccccc23)NC(=O)[C@H](CC(=O)O)NC(=O)[C@H](CCC(N)=O)NC(=O)[C@H](Cc2c[nH]c3ccccc23)NC(=O)[C@H]([C@@H](C)CC)NC1=O
# B2: Compound 75 (peptide)
# peptide: Ac-SEFCI[Trp(1-Me)]QDWGEHRC[Sar]EA-NH2
# modifications: disulfide 4-14
# SMILES: CC[C@H](C)[C@@H]1NC(=O)[C@@H](NC(=O)[C@H](Cc2ccccc2)NC(=O)[C@H](CCC(=O)O)NC(=O)[C@H](CO)NC(C)=O)CSSC[C@@H](C(=O)N(C)CC(=O)N[C@@H](CCC(=O)O)C(=O)N[C@@H](C)C(N)=O)NC(=O)[C@H](CCCNC(=N)N)NC(=O)[C@H](Cc2c[nH]cn2)NC(=O)[C@H](CCC(=O)O)NC(=O)CNC(=O)[C@H](Cc2c[nH]c3ccccc23)NC(=O)[C@H](CC(=O)O)NC(=O)[C@H](CCC(N)=O)NC(=O)[C@H](Cc2cn(C)c3ccccc23)NC1=O
# B3: Compound 82 (peptide)
# peptide: Ac-SE[Sar]CI[Trp(1-Me)]QDWGEHRCTEA-NH2
# modifications: disulfide 4-14
# SMILES: CC[C@H](C)[C@@H]1NC(=O)[C@@H](NC(=O)CN(C)C(=O)[C@H](CCC(=O)O)NC(=O)[C@H](CO)NC(C)=O)CSSC[C@@H](C(=O)N[C@H](C(=O)N[C@@H](CCC(=O)O)C(=O)N[C@@H](C)C(N)=O)[C@@H](C)O)NC(=O)[C@H](CCCNC(=N)N)NC(=O)[C@H](Cc2c[nH]cn2)NC(=O)[C@H](CCC(=O)O)NC(=O)CNC(=O)[C@H](Cc2c[nH]c3ccccc23)NC(=O)[C@H](CC(=O)O)NC(=O)[C@H](CCC(N)=O)NC(=O)[C@H](Cc2cn(C)c3ccccc23)NC1=O
# B4: Compound 100 (peptide)
# peptide: Ac-K([AEEA-AEEA-γGlu-C16 diacid])GSAICIWQDWGEHRCTEGE-NH2
# modifications: disulfide 6-16
# SMILES: CC[C@H](C)[C@H](NC(=O)[C@H](C)NC(=O)[C@H](CO)NC(=O)CNC(=O)[C@H](CCCCNC(=O)COCCOCCNC(=O)COCCOCCNC(=O)CC[C@H](NC(=O)CCCCCCCCCCCCCCC(=O)O)C(=O)O)NC(C)=O)C(=O)N[C@H]1CSSC[C@@H](C(=O)N[C@H](C(=O)N[C@@H](CCC(=O)O)C(=O)NCC(=O)N[C@@H](CCC(=O)O)C(N)=O)[C@@H](C)O)NC(=O)[C@H](CCCNC(=N)N)NC(=O)[C@H](Cc2c[nH]cn2)NC(=O)[C@H](CCC(=O)O)NC(=O)CNC(=O)[C@H](Cc2c[nH]c3ccccc23)NC(=O)[C@H](CC(=O)O)NC(=O)[C@H](CCC(N)=O)NC(=O)[C@H](Cc2c[nH]c3ccccc23)NC(=O)[C@H]([C@@H](C)CC)NC1=O
# B5: Compound 93 (peptide)
# peptide: Ac-ICIWQDWGEHRCTEGK([AEEA-AEEA-γGlu-C16 diacid])-NH2
# modifications: disulfide 2-12
# SMILES: CC[C@H](C)[C@H](NC(C)=O)C(=O)N[C@H]1CSSC[C@@H](C(=O)N[C@H](C(=O)N[C@@H](CCC(=O)O)C(=O)NCC(=O)N[C@@H](CCCCNC(=O)COCCOCCNC(=O)COCCOCCNC(=O)CC[C@H](NC(=O)CCCCCCCCCCCCCCC(=O)O)C(=O)O)C(N)=O)[C@@H](C)O)NC(=O)[C@H](CCCNC(=N)N)NC(=O)[C@H](Cc2c[nH]cn2)NC(=O)[C@H](CCC(=O)O)NC(=O)CNC(=O)[C@H](Cc2c[nH]c3ccccc23)NC(=O)[C@H](CC(=O)O)NC(=O)[C@H](CCC(N)=O)NC(=O)[C@H](Cc2c[nH]c3ccccc23)NC(=O)[C@H]([C@@H](C)CC)NC1=O
# Assays:
# [1] = type: physicochemical; details: 50 mg/mL peptide; for Covalent oligomer content after 14 days 40° C. (%), F1 / Purity after 14 days 40° C. (%), F1: F1: 20 mM phosphate pH 5.5; for Covalent oligomer content after 14 days 40° C. (%), F1 / Covalent oligomer content after 14 days 40° C. (%), F2: denaturing SEC; for Purity after 14 days 40° C. (%), F1 / Purity after 14 days 40° C. (%), F2 / Purity after 14 days 40° C. (%), F3: normalized purity (HPLC)
# Description: Chemical stability of compstatin analogues with cystathionine or disulfide bridge. Stability was assessed in three formulations at 50 mg/mL peptide, F1:20 mM phosphate pH 5.5, F2:20 mM phosphate pH 6.5 and F3:20 mM phosphate pH 7.5. The formulations were prepared by direct dissolution of peptide from lyophilized portions in the respective formulations. pH was adjusted to target with 1 M NaOH and 1 M HCl. Chemical stability was assessed under accelerated conditions (14 days, 40° C.) and evaluated as change in purity by reverse phase HPLC, and change in covalent oligomer content by denaturing SEC. The formulations were placed at 40° C. with analysis points at T=0, 7 and 14 days. On each time point a small volume was extracted and diluted to 2 mg/mL and tested by reverse phase HPLC and denaturing SEC. Purity was assessed by reverse phase HPLC using an Ultimate 3000 system for binary gradient application equipped with a Kinetix C18 column (cat. no. 00F-4462-Y0, 150 mm×3 mm, 2.6 μm) run at 0.5 ml/min with a gradient of buffer A (0.3% TFA, aq.) and buffer B (0.3% TFA, 90% MeCN, aq.) gradient from 40% B to 70% B over 20 min. Detection was done using a diode array detector set to 220 nm. Covalent oligomer formation was assessed by denaturing SEC (size exclusion chromatography) using an Ultimate 3000 system equipped with a TSKgel SuperSW 2000 column (cat. no. 818674, 300 mm×3 mm, 4 μm) run at 0.5 ml/min with isocratic flow of buffer A (0.1% TFA, 45% MeCN, aq.), 10 min. Detection was done using a diode array detector set to 215 nm. Compounds 126 and 156 were carefully weighed out and dissolved in formulations F1, F2 and F3 to a target concentration of 50 mg/mL. Once visually dissolved, concentration was confirmed by absorbance at 280 nm, and samples were placed in stability at 40° C. Samples for analysis were extracted on T=0, 7 and 14 days from a 40° C. climate chamber. The extracted volume was dissolved 1:25 (final concentration: 2 mg/mL) in 20 mM phosphate pH 5.5, 6.5 or 7.5 and measured by reverse phase HPLC and denaturing SEC by injection of 0.4 μL (column load […]). The resulting chromatograms were integrated to determine chemical purity by reverse phase HPLC and covalent oligomer content by denaturing SEC.
# [2] = system: classical complement pathway; assay: In vitro haemolysis assay (inhibition of classical complement pathway); type: cell-based, human; details: Table 3; human serum, sensitized sheep red blood cells; read-out: IC50[nM], in vitro analysis of inhibition of hemolysis
# Outline: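 Serially diluted compound (9 points) was preincubated 15 min at room temperature with diluted human serum, titrated per batch to give 70-90% maximal haemolysis, in Tris/casein buffer pH 7.4 with Mg2+/Ca2+. Antibody-sensitized sheep erythrocytes were then added for 30 min at 37° C, and the reaction was stopped with EDTA. Haemolysis was read at A405, with IC50 from 4PL fit.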
# Human C3 [3] = molecular target: T1, Human C3 (human, UniProt P01024 23-1663); assay: cell-based or functional assay
# T1 sequence (P01024 23-1663 limits assumed): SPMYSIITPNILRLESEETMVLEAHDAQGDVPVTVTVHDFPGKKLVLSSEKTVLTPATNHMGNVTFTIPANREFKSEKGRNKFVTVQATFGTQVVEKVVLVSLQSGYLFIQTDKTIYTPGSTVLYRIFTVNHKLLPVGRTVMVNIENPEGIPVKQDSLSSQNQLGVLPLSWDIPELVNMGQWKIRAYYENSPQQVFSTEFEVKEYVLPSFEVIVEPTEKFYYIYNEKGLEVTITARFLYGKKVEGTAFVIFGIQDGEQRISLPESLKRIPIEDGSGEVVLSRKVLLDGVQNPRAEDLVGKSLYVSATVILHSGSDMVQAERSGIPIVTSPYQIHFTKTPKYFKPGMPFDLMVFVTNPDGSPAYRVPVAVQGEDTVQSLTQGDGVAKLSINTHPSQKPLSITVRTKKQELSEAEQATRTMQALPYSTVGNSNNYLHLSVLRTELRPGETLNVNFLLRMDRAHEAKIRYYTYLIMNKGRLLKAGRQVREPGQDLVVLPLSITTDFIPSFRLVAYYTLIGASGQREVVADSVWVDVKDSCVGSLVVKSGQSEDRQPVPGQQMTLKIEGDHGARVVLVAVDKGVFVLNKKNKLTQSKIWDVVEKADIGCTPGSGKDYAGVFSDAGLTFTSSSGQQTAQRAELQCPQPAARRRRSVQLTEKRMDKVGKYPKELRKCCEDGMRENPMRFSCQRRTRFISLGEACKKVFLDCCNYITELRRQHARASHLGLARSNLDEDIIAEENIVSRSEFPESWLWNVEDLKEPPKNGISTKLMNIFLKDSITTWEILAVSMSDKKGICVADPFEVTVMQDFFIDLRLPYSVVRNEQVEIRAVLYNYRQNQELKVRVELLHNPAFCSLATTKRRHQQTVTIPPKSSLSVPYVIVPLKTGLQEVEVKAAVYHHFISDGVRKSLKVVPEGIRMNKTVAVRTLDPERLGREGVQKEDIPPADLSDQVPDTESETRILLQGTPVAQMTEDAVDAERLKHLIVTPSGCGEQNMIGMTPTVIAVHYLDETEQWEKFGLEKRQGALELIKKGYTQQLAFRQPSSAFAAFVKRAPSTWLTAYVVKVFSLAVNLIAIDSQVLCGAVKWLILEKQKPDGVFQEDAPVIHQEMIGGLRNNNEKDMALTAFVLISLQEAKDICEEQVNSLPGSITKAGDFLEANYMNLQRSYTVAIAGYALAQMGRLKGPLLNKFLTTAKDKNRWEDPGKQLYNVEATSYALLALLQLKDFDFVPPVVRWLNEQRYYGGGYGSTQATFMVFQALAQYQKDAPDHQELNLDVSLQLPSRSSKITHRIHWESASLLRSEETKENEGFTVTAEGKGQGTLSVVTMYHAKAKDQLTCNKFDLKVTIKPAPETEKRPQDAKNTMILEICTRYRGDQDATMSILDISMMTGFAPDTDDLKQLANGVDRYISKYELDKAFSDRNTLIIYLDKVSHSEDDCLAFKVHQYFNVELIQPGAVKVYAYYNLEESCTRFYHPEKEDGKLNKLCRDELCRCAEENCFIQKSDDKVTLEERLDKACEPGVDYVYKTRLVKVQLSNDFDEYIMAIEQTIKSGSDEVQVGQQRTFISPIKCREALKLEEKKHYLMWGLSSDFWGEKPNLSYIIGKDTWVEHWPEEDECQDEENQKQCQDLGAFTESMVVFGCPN
# Human C3 [4] = molecular target: T1, Human C3; assay: cell-based or functional assay; remark: listed apart in the source
Molecule,"Covalent oligomer content after 14 days 40° C. (%), F1 [1]","Purity after 14 days 40° C. (%), F1 [1]","Covalent oligomer content after 14 days 40° C. (%), F2 ([1]; F2: 20 mM phosphate pH 6.5)","Purity after 14 days 40° C. (%), F2 ([1]; F2: 20 mM phosphate pH 6.5)","Covalent oligomer content after 14 days 40° C. (%), F2 ([1]; F3: 20 mM phosphate pH 7.5)","Purity after 14 days 40° C. (%), F3 ([1]; F3: 20 mM phosphate pH 7.5)",IC50 [2],"IC50[nM], inhibition of hemolysis (Human C3 [3])","IC50[nM], inhibition of hemolysis (Human C3 [4])"
CC[C@H](C)[C@@H]1NC(=O)[C@@H](NC(=O)[C@H](Cc2ccccc2)NC(=O)[C@H](CCC(=O)O)NC(=O)[C@H](CO)NC(C)=O)CSSC[C@@H](C(=O)N[C@H](C(=O)N[C@@H](CCC(=O)O)C(=O)NCC(=O)N[C@@H](CCC(=O)O)C(=O)NCCOCCOCC(=O)NCCOCCOCC(=O)N[C@@H](CCCCNC(=O)CC[C@H](NC(=O)CNC(=O)CC[C@H](NC(=O)CCCCCCCCCCCCCCCCC(=O)O)C(=O)O)C(=O)O)C(N)=O)[C@@H](C)O)NC(=O)[C@H](CCCNC(=N)N)NC(=O)[C@H](Cc2c[nH]cn2)NC(=O)[C@H](CCC(=O)O)NC(=O)CNC(=O)[C@H](Cc2c[nH]c3ccccc23)NC(=O)[C@H](CC(=O)O)NC(=O)[C@H](CCC(N)=O)NC(=O)[C@H](Cc2cn(C)c3ccccc23)NC1=O [Compound 126] (Ac-SEFCI[Trp(1-Me)]QDWGEHRCTEGE[AEEA][AEEA]K([γGlu-Gly-γGlu-C18 diacid])-NH2; disulfide 4-14),66%,45%,54%,47%,41%,57%,< 100 nM,,
CC[C@H](C)[C@@H]1NC(=O)[C@@H](NC(=O)[C@H](Cc2ccccc2)NC(=O)[C@H](CCC(=O)O)NC(=O)[C@H](CO)NC(C)=O)CSCC[C@@H](C(=O)N(C)CC(=O)N[C@@H](CCC(=O)O)C(=O)NCC(=O)N[C@@H](CCC(=O)O)C(=O)NCCOCCOCC(=O)NCCOCCOCC(=O)N[C@@H](CCCCNC(=O)CC[C@H](NC(=O)CNC(=O)CC[C@H](NC(=O)CCCCCCCCCCCCCCCCC(=O)O)C(=O)O)C(=O)O)C(N)=O)NC(=O)[C@H](CCCNC(=N)N)NC(=O)[C@H](Cc2c[nH]cn2)NC(=O)[C@H](CCC(=O)O)NC(=O)CNC(=O)[C@H](Cc2c[nH]c3ccccc23)NC(=O)[C@H](CCC(=O)O)NC(=O)[C@H](CCC(N)=O)NC(=O)[C@H](Cc2cn(C)c3ccccc23)NC1=O [Compound 153] (Ac-SEFCI[Trp(1-Me)]QEWGEHR[Abu(4-yl)][Sar]EGE[AEEA][AEEA]K([γGlu-Gly-γGlu-C18 diacid])-NH2; thioether 4-14),0.7%,97%,0.5%,99%,0.3%,99%,< 100 nM,,
"CC[C@H](C)[C@@H]1NC(=O)[C@@H](NC(=O)[C@H](Cc2ccccc2)NC(=O)[C@H](CCC(=O)O)NC(=O)[C@H](CO)NC(C)=O)CSCC[C@@H](C(=O)N[C@H](C(=O)N[C@@H](CCC(=O)O)C(=O)NCC(=O)N[C@@H](CCC(=O)O)C(=O)NCCOCCOCC(=O)NCCOCCOCC(=O)N[C@@H](CCCCNC(=O)CC[C@H](NC(=O)CNC(=O)CC[C@H](NC(=O)CCCCCCCCCCCCCCCCC(=O)O)C(=O)O)C(=O)O)C(N)=O)[C@@H](C)O)NC(=O)[C@H](CCCNC(=N)N)NC(=O)[C@H](Cc2c[nH]cn2)NC(=O)[C@H](CCC(=O)O)NC(=O)CNC(=O)[C@H](Cc2c[nH]c3ccccc23)NC(=O)[C@H](CC(=O)O)NC(=O)[C@H](CCC(N)=O)NC(=O)[C@H](Cc2cn(C)c3ccccc23)NC1=O [Compound 156, Ac-SEFA(1)I[1-Me-Trp]QDWGEHRhC(1)TEGE[Peg3][Peg3]-K([17-carboxy-heptadecanoyl][γGlu]G[γGlu])-NH2] (Ac-SEFCI[Trp(1-Me)]QDWGEHR[Abu(4-yl)]TEGE[AEEA][AEEA]K([γGlu-Gly-γGlu-C18 diacid])-NH2; thioether 4-14)",1.1%,92%,0.5%,96%,1.1%,95%,< 100 nM,,
B1,,,,,,,,< 1000 nM,
B2,,,,,,,,< 100 nM,
B3,,,,,,,,< 100 nM,
B4,,,,,,,,,< 500 nM
B5,,,,,,,,< 500 nM,
